In patent US9693556B2, “Herbicidal pyridazinone derivatives” (SYNGENTA LIMITED, priority 2011, dated 2017):

Legend:
Type in all cases: in vivo
[1] = test system: Ipomoea hederacea (IPOHE); assay: Pre-emergence herbicidal glasshouse test on Ipomoea hederacea; details: pre-emergence; 1000 g/h; evaluated after 13 days
How it was run: (§1)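 Pre-emergence treatment came one day after sowing, post-emergence treatment after eight days' growth; both used 1000 g/h in a 0.5% Tween 20 acetone/water vehicle. Percent damage, scored 1–5, was read 13 days later.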

[2] = test system: Amaranthus retoflexus (AMARE); assay: Post-emergence herbicidal glasshouse test on Amaranthus retoflexus; details: post-emergence; 1000 g/h; evaluated after 13 days
How it was run: as §1

Setaria faberi (SETFA) [3] = assay: Post-emergence herbicidal glasshouse test on Setaria faberi; details: post-emergence; 1000 g/h; evaluated after 13 days
How it was run: as §1

Solanum nigrum (SOLNI) [4] = assay: Pre-emergence herbicidal glasshouse test on Solanum nigrum; details: pre-emergence; 1000 g/h; evaluated after 13 days
How it was run: as §1

Setaria faberi (SETFA) [5] = assay: Pre-emergence herbicidal glasshouse test on Setaria faberi; details: pre-emergence; 1000 g/h; evaluated after 13 days
How it was run: as §1

[6] = test system: Ipomoea hederacea (IPOHE); assay: Post-emergence herbicidal glasshouse test on Ipomoea hederacea; details: post-emergence; 1000 g/h; evaluated after 13 days
How it was run: as §1

Solanum nigrum (SOLNI) [7] = assay: Post-emergence herbicidal glasshouse test on Solanum nigrum; details: post-emergence; 1000 g/h; evaluated after 13 days
How it was run: as §1

[8] = test system: Amaranthus retoflexus (AMARE); assay: Pre-emergence herbicidal glasshouse test on Amaranthus retoflexus; details: pre-emergence; 1000 g/h; evaluated after 13 days
How it was run: as §1

[9] = test system: Echinochloa crus-galli (ECHCG); assay: Post-emergence herbicidal glasshouse test on Echinochloa crus-galli; details: post-emergence; 1000 g/h; evaluated after 13 days
How it was run: as §1

[10] = test system: Alopecurus myosuroides (ALOMY); assay: Pre-emergence herbicidal glasshouse test on Alopecurus myosuroides; details: pre-emergence; 1000 g/h; evaluated after 13 days
How it was run: as §1

[11] = test system: Alopecurus myosuroides (ALOMY); assay: Post-emergence herbicidal glasshouse test on Alopecurus myosuroides; details: post-emergence; 1000 g/h; evaluated after 13 days
How it was run: as §1

[12] = test system: Echinochloa crus-galli (ECHCG); assay: Pre-emergence herbicidal glasshouse test on Echinochloa crus-galli; details: pre-emergence; 1000 g/h; evaluated after 13 days
How it was run: as §1

Structure (SMILES)	PRE Application IPOHE herbicidal damage (five point scale) [1]	POST Application AMARE herbicidal damage (five point scale) [2]	POST Application SETFA herbicidal damage (five point scale) (Setaria faberi (SETFA) [3])	PRE Application SOLNI herbicidal damage (five point scale) (Solanum nigrum (SOLNI) [4])	PRE Application SETFA herbicidal damage (five point scale) (Setaria faberi (SETFA) [5])	POST Application IPOHE herbicidal damage (five point scale) [6]	POST Application SOLNI herbicidal damage (five point scale) (Solanum nigrum (SOLNI) [7])	PRE Application AMARE herbicidal damage (five point scale) [8]	POST Application ECHCG herbicidal damage (five point scale) [9]	PRE Application ALOMY herbicidal damage (five point scale) [10]	POST Application ALOMY herbicidal damage (five point scale) [11]	PRE Application ECHCG herbicidal damage (five point scale) [12]
CCCOc1nn(C)c(=O)c(O)c1-c1ccc(C(F)(F)F)cc1S(C)(=O)=O [Compound 2.051, 4-hydroxy-2-methyl-5-[2-methylsulfonyl-4-(trifluoromethyl)phenyl]-6-propoxy-pyridazin-3-one]	4 (4=60-79% damage)	5 (5=80-100% damage)	5 (5=80-100% damage)	5 (5=80-100% damage)	3 (3=40-59% damage)	5 (5=80-100% damage)	5 (5=80-100% damage)	5 (5=80-100% damage)	5 (5=80-100% damage)	5 (5=80-100% damage)	5 (5=80-100% damage)	5 (5=80-100% damage)
COCn1ncc(-c2ccc(S(C)(=O)=O)c(C3=NOCC3)c2C)c(O)c1=O [Compound 1.001]	5 (5=80-100% damage)	5 (5=80-100% damage)	5 (5=80-100% damage)	5 (5=80-100% damage)	5 (5=80-100% damage)	5 (5=80-100% damage)	5 (5=80-100% damage)	5 (5=80-100% damage)	5 (5=80-100% damage)	5 (5=80-100% damage)	5 (5=80-100% damage)	5 (5=80-100% damage)
Cn1ncc(-c2ccc(F)cc2S(C)(=O)=O)c(O)c1=O [Compound 1.058]	5 (5=80-100% damage)	5 (5=80-100% damage)	5 (5=80-100% damage)	5 (5=80-100% damage)	5 (5=80-100% damage)	5 (5=80-100% damage)	5 (5=80-100% damage)	5 (5=80-100% damage)	5 (5=80-100% damage)	5 (5=80-100% damage)	5 (5=80-100% damage)	5 (5=80-100% damage)
Cc1c(-c2c(C3CC3)nn(C)c(=O)c2O)ccc(S(C)(=O)=O)c1C1=NOCC1 [Compound 2.019]	4 (4=60-79% damage)	5 (5=80-100% damage)	4 (4=60-79% damage)	5 (5=80-100% damage)	2 (2=20-39% damage)	5 (5=80-100% damage)	5 (5=80-100% damage)	5 (5=80-100% damage)	4 (4=60-79% damage)	4 (4=60-79% damage)	5 (5=80-100% damage)	5 (5=80-100% damage)
CCn1ncc(-c2c(Cl)ccc(Cl)c2Cl)c(O)c1=O [Compound 1.010]	1 (1=0-19% damage)	2 (2=20-39% damage)	1 (1=0-19% damage)	1 (1=0-19% damage)	1 (1=0-19% damage)	4 (4=60-79% damage)	4 (4=60-79% damage)	1 (1=0-19% damage)	1 (1=0-19% damage)	1 (1=0-19% damage)	1 (1=0-19% damage)	1 (1=0-19% damage)
Cn1ncc(-c2ccc(C(F)(F)F)nc2S(C)(=O)=O)c(O)c1=O [Compound 4.003]	5 (5=80-100% damage)	5 (5=80-100% damage)	5 (5=80-100% damage)	5 (5=80-100% damage)	5 (5=80-100% damage)	5 (5=80-100% damage)	5 (5=80-100% damage)	5 (5=80-100% damage)	5 (5=80-100% damage)	5 (5=80-100% damage)	5 (5=80-100% damage)	5 (5=80-100% damage)
Cc1c(Cl)ccc(-c2cnn(C)c(=O)c2O)c1F [Compound 1.045]	1 (1=0-19% damage)	2 (2=20-39% damage)	1 (1=0-19% damage)	1 (1=0-19% damage)	1 (1=0-19% damage)	1 (1=0-19% damage)	4 (4=60-79% damage)	1 (1=0-19% damage)	1 (1=0-19% damage)	1 (1=0-19% damage)	1 (1=0-19% damage)	1 (1=0-19% damage)
CC(C)OCc1ccc(-c2cnn(C)c(=O)c2O)c(S(C)(=O)=O)c1 [Compound 2.043]	2 (2=20-39% damage)	5 (5=80-100% damage)	4 (4=60-79% damage)	5 (5=80-100% damage)	1 (1=0-19% damage)	5 (5=80-100% damage)	5 (5=80-100% damage)	5 (5=80-100% damage)	5 (5=80-100% damage)	3 (3=40-59% damage)	3 (3=40-59% damage)	5 (5=80-100% damage)
Cn1ncc(-c2ccc(C(F)(F)F)cc2S(C)(=O)=O)c(O)c1=O [Compound 1.028, 4-hydroxy-2-methyl-5-[2-methylsulfonyl-4-(trifluoromethyl)phenyl]pyridazin-3-one]	5 (5=80-100% damage)	5 (5=80-100% damage)	5 (5=80-100% damage)	5 (5=80-100% damage)	5 (5=80-100% damage)	5 (5=80-100% damage)	5 (5=80-100% damage)	5 (5=80-100% damage)	5 (5=80-100% damage)	5 (5=80-100% damage)	5 (5=80-100% damage)	5 (5=80-100% damage)
COc1cccn(-c2cnn(C)c(=O)c2O)c1=O [Compound 1.070]	1 (1=0-19% damage)	3 (3=40-59% damage)	4 (4=60-79% damage)	1 (1=0-19% damage)	1 (1=0-19% damage)	1 (1=0-19% damage)	4 (4=60-79% damage)	1 (1=0-19% damage)	4 (4=60-79% damage)	1 (1=0-19% damage)	1 (1=0-19% damage)	1 (1=0-19% damage)
